Measured values as given in patent US20260226064A1, “POLYCYCLIC COMPOUND FOR TREATING NEUROLOGICAL DISEASES AND TUMORS” (Shanghai Institute of Organic Chemistry, Chinese Academy of …, priority 2023, published 2026).
Like-named read-outs stand apart in the source and are kept apart here.

Key:
[1] = system: acetylated microtubule in HEK293T cells; assay: Microtubule-Stabilizing Activity Assay (acetylated microtubule immunoblot, HEK293T, colchicine challenge); assay type: cell-based; settings: 1 h pre-incubation, then colchicine 1 μM 3 h, relative to CNDR-51657 at 500 nM = 1.00; for Microtubule-Stabilizing Activity 50 nM: compound 50 nM; for Microtubule-Stabilizing Activity 500 nM: compound 500 nM
How it was run: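 HEK293T cells pretreated with compound or DMSO 1 h at 37 °C, then challenged with 1 μM colchicine for 3 h. Lysates (RIPA plus 1 μM trichostatin A) immunoblotted for acetylated and α-tubulin, quantified by densitometry. Activity expressed relative to CNDR-51657 at 500 nM set as 1.00.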

[2] = Mouse Oral Pharmacokinetic Study; assay type: in vivo; settings: mouse, male CD1 mice, oral gavage 10 mg/kg; for Kp at 4 h: brain/plasma, read-out: Cbrain/Cplasma; for AUC(0-t) / Cmax / Tmax: plasma; for AUC(0-t): 0-4 h, read-out: AUC0-4h; for Cmax: read-out: Cmax; for Tmax: read-out: Tmax
Experimental: Healthy male CD1 mice were used as experimental animals. The drug was administered by oral gavage at a dose of 10 mg/kg with a dosing volume of 10 mL/kg. Drug preparation: 10 mg of the compound was placed in 10 mL of 50% PEG400 or 20% HPb-cyclodextrin, ground and shaken to ensure uniform distribution of the compound in small particle size, followed by oral administration. Blood samples were collected at 30 min, 1 h, 2 h, and 4 h post-dose, and brain tissues were sampled at 4 h. EDTA dipotassium salt was added to the blood samples, and plasma was obtained after centrifugation. The supernatant was analyzed after dilution with 5 volumes of acetonitrile and centrifugation. The brain tissue homogenate was diluted with 3.5 volumes of acetonitrile, centrifuged, and the supernatant was collected for analysis. The samples were then analyzed by liquid chromatography-tandem mass spectrometry (LC-MS/MS): the instrument was AB Sciex 3500; the mobile phase consisted of 0.1% formic acid in water (A)/0.1% formic acid in acetonitrile (B), with gradient elution.

[3] = brain tissue at 4 h, read-out: Cbrain@4h
[4] = plasma at 4 h, read-out: Cpasma@4h

Structure (SMILES)	Microtubule-Stabilizing Activity 50 nM [1]	Microtubule-Stabilizing Activity 500 nM [1]	Kp at 4 h [2]	concentration at 4 h [2, 3] [ng/mL]	concentration at 4 h [2, 4] [ng/mL]	AUC(0-t) [2] [ng·h/mL]	Cmax [2] [ng/mL]	Tmax [2] [min]
C[C@H](Nc1c(-c2c(F)cc(OCC3[C@H]4CNC[C@@H]34)cc2F)c(Cl)nc2ncnn12)C(F)(F)F (stereo partly drawn) [Example 24, 6-(4-(((1R,5S,6r)-3-Azabicyclo[3.1.0]hex-6-yl)methoxy)-2,6-difluorophenyl)-5-chloro-N—((S)-1,1,1-trifluoropropan-2-yl)-[1,2,4]triazolo[1,5-a]pyrimidin-7-amine]	0.86	1.63	0.17	147	874	5960	2640	45
C[C@H](Nc1c(-c2c(F)cc(OCC3[C@H]4CN(C)C[C@@H]34)cc2F)c(Cl)nc2ncnn12)C(F)(F)F (stereo partly drawn) [Example 25, 5-Chloro-6-(2,6-difluoro-4-(((1R,5S,6r)-3-methyl-3-azabicyclo[3.1.0]hexan-6-yl)methoxy)phenyl)-N—((S)-1,1,1-trifluoropropan-2-yl)-[1,2,4]triazolo[1,5-a]pyrimidin-7-amine]	0.96	1.31	1.45	198	137	939	399	45
C[C@@H](Nc1c(-c2c(F)cc(C#C[C@@H]3[C@H]4CN(C)C[C@@H]34)cc2F)c(Cl)nc2ncnn12)C1CCC1 [Example 46, 5-Chloro-N—((R)-1-cyclobutylethyl)-6-(2,6-difluoro-4-(((1R,5S,6s)-3-methyl-3-azabicyclo[3.1.0]hexan-6-yl)ethynyl)phenyl)-[1,2,4]triazolo[1,5-a]pyrimidin-7-amine]	1.76	1.44	1.09	356	325	1600	572	30
C[C@H](Nc1c(-c2c(F)cc(C#CC3[C@H]4CN(C)C[C@@H]34)cc2F)c(Cl)nc2ncnn12)C(F)(F)F (stereo partly drawn) [Example 48, 5-Chloro-6-(2,6-difluoro-4-(((1R,5S,6s)-3-methyl-3-azabicyclo[3.1.0]hexan-6-yl)ethynyl)phenyl)-N—((S)-1,1,1-trifluoropropan-2-yl)-[1,2,4]triazolo[1,5-a]pyrimidin-7-amine]	1.42	1.66	2.83	1020	359	1810	591	45
CC(C)[C@@H](C)Nc1c(-c2c(F)cc(C#C[C@@H]3[C@H]4CN(C)C[C@@H]34)cc2F)c(Cl)nc2ncnn12 [Example 55, 5-Chloro-6-(2,6-difluoro-4-(((1R,5S,6s)-3-methyl-3-azabicyclo[3.1.0]hexan-6-yl)ethynyl)phenyl)-N—((R)-3-methylbutan-2-yl)-[1,2,4]triazolo[1,5-a]pyrimidin-7-amine]	1.8	1.62	1.22	375	306	1450	496	30
Cc1nc2ncnn2c(N[C@H](C)C(C)C)c1-c1c(F)cc(OCC2[C@H]3CN(C)C[C@@H]23)cc1F (stereo partly drawn) [Example 57, 6-(2,6-Difluoro-4-(((1R,5S,6r)-3-methyl-3-azabicyclo[3.1.0]hexan-6-yl)methoxy)phenyl)-5-methyl-N—((R)-3-methylbutan-2-yl)-[1,2,4]triazolo[1,5-a]pyrimidin-7-amine]	–	1.90	0.96	102	106	525	161	30
CN1C[C@@H]2[C@@H](/C=C/c3cc(F)c(-c4c(Cl)nc5ncnn5c4NCC(F)(F)F)c(F)c3)[C@@H]2C1 [Example 58]	1.09	1.63	3.58	222	62	368	115	60
Cc1nc2ncnn2c(NCC(F)(F)F)c1-c1c(F)cc(OC[C@@H]2[C@H]3CN(C)C[C@@H]23)cc1F [Example 60]	0.95	1.24	1.32	62	47	696	379	30
CC(C)[C@@H](C)Nc1c(-c2c(F)cc(F)cc2F)c(Cl)nc2ncnn12 [Intermediate 4, (R)-5-Chloro-N-(3-methylbutan-2-yl)-6-(2,4,6-trifluorophenyl)-[1,2,4]triazolo[1,5-a]pyrimidin-7-amine, reference compound]	0.2-0.3	1.00	0	0	3	57	49	30
